Among the test systems are HT29 colon; OVCAR-3 ovarian; MOLT-4 leukemia; M14 melanoma; U251 CNS; HOP-62 NSCLC; OVCAR-4 ovarian; HCT-116 colon; KM12 colon.
Assay in all cases: DTP human tumour cell line panel, 48 h

Data on 15 molecules can be found in PubChem BioAssay (NCI).

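Grown in 96-well plates, cells were treated for 48 hours with each compound at five concentrations. Insufficient inhibition: endpoint recorded as highest concentration tested. GI50 marks 50% less growth. TGI denotes the concentration required for complete inhibition of growth.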

Broadly, the TGI is the concentration giving total growth inhibition. Read a high TGI as lower sensitivity of the cells. In the case of `Cc1ccc(C)c(N2C(=O)C(=O)C(c3nc4ccccc4o3)/C(=N\NC(=O)c3ccccc3O)C2=O)c1` (stereo unspecified), the TGI in the assay on HT29 colon was above 100 µM; in the assay on OVCAR-3 ovarian, 63 µM; in the assay with MOLT-4 leukemia it was 52.6 µM; in the assay with M14 melanoma, above 100 µM; in the assay with U251 CNS it was above 100 µM; in the assay on HOP-62 NSCLC, above 100 µM. Moreover, the TGI is 69.6 µM in the assay on OVCAR-4 ovarian and 63.6 µM in the assay with HCT-116 colon.

For `COc1cc(/C=N\O[Si](C)(C)C(C)(C)C)ccc1O[Si](C)(C)C(C)(C)C`, the TGI in the assay with HT29 colon was above 100 µM; in the assay with OVCAR-3 ovarian, 54.1 µM; in the assay on MOLT-4 leukemia, above 100 µM; in the assay on M14 melanoma, above 100 µM; in the assay with U251 CNS, 71.5 µM; with HOP-62 NSCLC, above 100 µM. In addition, the TGI with OVCAR-4 ovarian, with HCT-116 colon and in the assay with KM12 colon was above 100 µM in each case.

For orientation: GI50 means the concentration that inhibits growth by half. As to `Cc1ccc2[c](c1)[Sn]([c]1ccccc1)([c]1ccccc1)[c]1cc(C)ccc1N2C`, the GI50 with HT29 colon was 37.3 µM; with OVCAR-3 ovarian, 37.9 µM; with M14 melanoma, 80.5 µM; with U251 CNS, 87.5 µM; with HOP-62 NSCLC, above 100 µM; in the assay with OVCAR-4 ovarian it was 41.6 µM. For the same molecule, the values for the GI50 with HCT-116 colon and with KM12 colon were 20.9 µM and 29.8 µM, respectively. Moreover, the TGI in the assay on HT29 colon, in the assay on OVCAR-3 ovarian, in the assay with M14 melanoma, in the assay on U251 CNS, in the assay on HOP-62 NSCLC and in the assay with OVCAR-4 ovarian was above 100 µM in each case. Also, the TGI in the assay on HCT-116 colon and in the assay with KM12 colon was above 100 µM each time.

In the case of `CCOC(=O)C(C)(c1c(C)[nH]c2ccccc12)c1c(C)[nH]c2ccccc12`, the TGI in the assay with HT29 colon was determined as 30.3 µM; in the assay with OVCAR-3 ovarian, 34 µM; in the assay on MOLT-4 leukemia, 42.9 µM; in the assay with M14 melanoma, 29.8 µM; with U251 CNS it was 33.4 µM; in the assay with HOP-62 NSCLC, 43.6 µM. Moreover, the values for the TGI in the assay on OVCAR-4 ovarian, in the assay on HCT-116 colon and in the assay with KM12 colon were 32 µM, 25 µM and 33.2 µM, respectively.

For `Cc1ccc(C)c(N2C(=O)C(=O)C(c3nc4ccccc4o3)/C(=N/N)C2=O)c1` (stereo unspecified), the TGI with HT29 colon, with OVCAR-3 ovarian, in the assay with MOLT-4 leukemia, with M14 melanoma, in the assay on U251 CNS and with HOP-62 NSCLC was above 100 µM in each case. For the same molecule, the TGI in the assay with OVCAR-4 ovarian, in the assay with HCT-116 colon and in the assay on KM12 colon was above 100 µM in each case.

As to `C=CCC1(C)CCCCC1(O)CS(=O)c1ccccc1` (stereo unspecified), the TGI in the assay with HT29 colon, with OVCAR-3 ovarian, with MOLT-4 leukemia, in the assay on M14 melanoma, in the assay on U251 CNS and in the assay with HOP-62 NSCLC was above 100 µM throughout. The TGI in the assay on OVCAR-4 ovarian, with HCT-116 colon and in the assay with KM12 colon was above 100 µM in each case.

In the case of `N#CC(C#N)=C1CCCOc2c1ccc1ccccc21`, the GI50 in the assay with HT29 colon was above 100 µM; in the assay with OVCAR-3 ovarian, above 100 µM; with MOLT-4 leukemia, 19.5 µM; with M14 melanoma, above 100 µM; in the assay with HOP-62 NSCLC, 79.5 µM; with OVCAR-4 ovarian, above 100 µM. For the same molecule, the GI50 in the assay on HCT-116 colon and in the assay with KM12 colon was above 100 µM throughout. In addition, the TGI in the assay with HT29 colon is above 100 µM; in the assay with OVCAR-3 ovarian, above 100 µM; in the assay on MOLT-4 leukemia, 51 µM; in the assay on M14 melanoma it was above 100 µM; in the assay with HOP-62 NSCLC it was above 100 µM; in the assay with OVCAR-4 ovarian, above 100 µM. The TGI with HCT-116 colon and in the assay on KM12 colon was above 100 µM each time.

On to `Cc1c(Cl)cccc1NC(=O)c1cccc([N+](=O)[O-])c1O`, for which the TGI in the assay with HT29 colon was 82 µM; in the assay with OVCAR-3 ovarian, 51.4 µM; in the assay on MOLT-4 leukemia, 46.7 µM; in the assay on M14 melanoma it was above 78.9 µM; in the assay with U251 CNS, 77.5 µM; in the assay with HOP-62 NSCLC, 29.3 µM. Besides, the values for the TGI with OVCAR-4 ovarian, with HCT-116 colon and in the assay with KM12 colon were above 70.1 µM, 40 µM and above 68.5 µM, respectively.

On to `C[Si](C)(C)CN1C(=O)c2ccccc2C1(O)c1ccccc1` (stereo unspecified), for which the TGI in the assay with HT29 colon, in the assay with OVCAR-3 ovarian, in the assay on MOLT-4 leukemia, in the assay on M14 melanoma, with U251 CNS and with HOP-62 NSCLC was above 100 µM each time. In addition, the TGI in the assay with OVCAR-4 ovarian, with HCT-116 colon and in the assay on KM12 colon was above 100 µM each time.

For `CC12CCC(=O)N1c1cccnc1N2` (stereo unspecified), the TGI in the assay on HT29 colon, in the assay with OVCAR-3 ovarian, in the assay on MOLT-4 leukemia, in the assay on M14 melanoma, with U251 CNS and in the assay on HOP-62 NSCLC was above 100 µM throughout. Moreover, the TGI in the assay with OVCAR-4 ovarian and with KM12 colon was above 100 µM in each case.

As to `C[P+](C)(C)c1ccccc1`, the TGI with HT29 colon, in the assay with OVCAR-3 ovarian, in the assay with MOLT-4 leukemia, in the assay with M14 melanoma, in the assay on U251 CNS and with HOP-62 NSCLC was above 100 µM throughout. Besides, the TGI in the assay on OVCAR-4 ovarian, with HCT-116 colon and in the assay on KM12 colon was above 100 µM each time.

For `CCc1nc(Cl)c(Cl)c(Cl)n1`, the TGI in the assay on HT29 colon, in the assay with OVCAR-3 ovarian, with MOLT-4 leukemia, in the assay on M14 melanoma, in the assay on U251 CNS and in the assay on HOP-62 NSCLC was above 100 µM in each case. The TGI in the assay on OVCAR-4 ovarian and in the assay with KM12 colon was above 100 µM in each case.

As for `NC(=S)N/N=C1\CCCC\C1=C/c1ccccc1`, the TGI is 50.3 µM in the assay with HT29 colon; above 100 µM in the assay on OVCAR-3 ovarian; 84.4 µM in the assay on MOLT-4 leukemia; above 100 µM with M14 melanoma; above 100 µM in the assay on U251 CNS; above 100 µM with HOP-62 NSCLC. Also, the TGI in the assay on OVCAR-4 ovarian, in the assay with HCT-116 colon and in the assay on KM12 colon was above 100 µM throughout.

`O=C1C2[C@@H](C(=O)N1c1ccc(Br)cc1)C13C(=CC2([N+](=O)[O-])[C@@H]2C(=O)N(c4ccc(Br)cc4)C(=O)[C@@H]21)c1ccccc1N3c1ccccc1` (stereo partly specified): the TGI with OVCAR-3 ovarian, in the assay with MOLT-4 leukemia, in the assay with M14 melanoma, in the assay on U251 CNS and in the assay on KM12 colon was above 100 µM each time.

Take `CCOc1ccc(N=Cc2c3ccccc3nc3ccccc23)cc1`: the TGI with HT29 colon, with OVCAR-3 ovarian, with MOLT-4 leukemia, in the assay on M14 melanoma, in the assay on U251 CNS and in the assay on HOP-62 NSCLC was above 100 µM in each case. For the same molecule, the TGI was above 100 µM in the assay on OVCAR-4 ovarian and 84.7 µM in the assay on KM12 colon.
